The values that follow come from patent publication US20260207563A1, “UREA COMPOUNDS AS ACTIVATORS OF POTASSIUM CHANNELS KV7.2/7.3 USEFUL IN THE TREATMENT OF CNS AND PNS DISORDERS” (ANGELINI PHARMA S.P.A., priority 2022, published 2026).

The target in the test is T1, heteromeric KV7.2/KV7.3 channels (KCNQ2, KCNQ3) (Homo sapiens, UniProt O43525+O43526).
T1 construct: expressed in transfected cells; host or cells: CHO-K1
As to the kind of experiment: Automated patch-clamp (Sophion Qube 384) potency assay against KV7.2/KV7.3 channels. It counts as cell-based. Conditions: CHO-K1/Kv7.2/Kv7.3 cells; for EC50: EC50 from concentration-response of shift in Vhalf, 10 concentrations up to 30 μM, read-out: Kv7.2/7.3 EC50; for Kv7.2/7.3 ΔV1/2: maximal shift in the Vhalf from the top of the curve. From the text: Assessment of In Vitro Potency Against KV7.2/KV7.3 Channels
An automated patch-clamp assay on the Sophion Qube 384 was developed for potency testing to identify small molecule activators of heteromeric KV7.2/KV7.3 channels (KCNQ2, Uniprot ID 043526; KCNQ3, Uniprot 043525).
The cell line used was a stably transfected CHO-K1 cell line with constitutive KV7.2/KV7.3 expression.
CHO-K1/Kv7.2/Kv7.3 cells were maintained in the following culture media: • DMEM/F-12 with GlutaMAX™ (Gibco 31331-028), • 10% Fetal clone 2 serum (Perbio Science SH30066.03), • 1 mg/ml Geneticin™ selective antibiotic (G418, Invitrogen 1013027), and • 5 μg/ml BlasticidinS HCl (Invivogen Ant-bl-5).
On the day of the experiment, cells were resuspended in serum free media, counted and diluted to a final concentration of 3.5×10^6 cells per ml of media.
Cells were then placed onto the Sophion Qube 384 and rested for a minimum of 1 hour.
The following solutions were used for recording: • extracellular solution (in mM): 145 NaCl, 4 KCl, 1 MgCl2, 2 CaCl2), 10 HEPES, 10 glucose, pH 7.4, 315-320 mOsm. • intracellular solution (in mM): 120 KCl, 5.74 CaCl2), 1.75 MgCl2, 10 EGTA, 10 HEPES, 5 Na2ATP, pH 7.2, adjusted to 315 mOsm with sucrose.
After establishing the whole-cell configuration, cells were held at −80 mV throughout the experiment. A current-voltage (I-V) protocol stepping from −100 to +20 mV for 1 second was applied to measure Kv7.2/Kv7.3 currents, each step was followed by a 200 ms pulse to 0 mV to measure the tail currents. From the I-V protocol a Boltzmann fit was applied to generate activation curves. Data were sampled at 25 kHz and filtered at 5 kHz (Bessel). Data were produced using multihole QChips. The I-V protocol was applied several times to establish the response in control conditions (typically 0.3% DMSO) and in the presence of the test compound.
Data were reviewed in Sophion Analyser version 6.5.2 (Sophion Bioscience) for recording quality and filters were applied to remove any failed wells. Leak subtraction was applied to all recordings. Data filters for multihole QChips were typically: seal resistance>4 MΩ, capacitance >20 pF, baseline VHalf between 0 to −40 mV, baseline holding current between −2 to 2 nA, baseline steady state current at 20 mV >4 nA unless otherwise stated.
Analysis of Data for Assessment of Potency
10 concentrations of test compounds were applied to individual wells in quadruplicate to assess potency as a 1 in 3 dilution series from the maximal concentration of 30 μM. The average shift in the voltage for half activation (Vhalf) for each concentration was used to generate concentration-response curves fitted with a 4-parameter logistic model to estimate the EC50 from the point of inflection of the curve and the maximal shift in the Vhalf from the top of the curve.
The lower the EC50 value, the higher the potency of the analyzed compound. The selectivity criteria is assigned on the basis of the maximal shift in the Vhalf at 30 μM. […] In Table 3, ND means that selectivity was not determined.

Molecules are shown by their SMILES.

As for `O=C(NCc1ccnc(OCC(F)(F)F)n1)N[C@@H]1CCc2ccc(F)cc21` [Compound 167], the EC50 was found to be 10200 nM and the “Kv7.2/7.3 ΔV1/2” value worked out at 20.68 mV.

As for `Cc1cccc2c1[C@H](NC(=O)NCc1ccnc(OCC(F)(F)F)c1)CC2` [Compound 168], the EC50 was 2240 nM and the “Kv7.2/7.3 ΔV1/2” value worked out at 37.25 mV.

As to `Cc1cccc2c1[C@@H](NC(=O)NCc1ccnc(OCC(F)(F)F)c1)CC2` [Compound 169], the EC50 came to 1400 nM and the “Kv7.2/7.3 ΔV1/2” value came out at 24.08 mV.

Take `O=C(NCc1ccnc(OCC(F)(F)F)c1)N[C@@H]1CCOc2ccc(F)cc21` [Compound 170]: the EC50 was 1540 nM and the “Kv7.2/7.3 ΔV1/2” value is 42.82 mV.

Consider `O=C(NCc1ccnc(OCC(F)(F)F)n1)N[C@@H]1CCc2ccccc21` [Compound 171], for which the EC50 was 1240 nM and the “Kv7.2/7.3 ΔV1/2” value is 48.06 mV.

On to `O=C(NCc1ccnc(OCC(F)(F)F)c1)N[C@@H]1CCc2sccc21` [Compound 172], for which the EC50 came to 1980 nM and the “Kv7.2/7.3 ΔV1/2” value is recorded as 55.13 mV.

As for `O=C(NCc1ccnc(OCC(F)(F)F)c1)N[C@H]1CSc2ccccc2C1` [Compound 173], the EC50 amounted to 330 nM and the “Kv7.2/7.3 ΔV1/2” value is 31.15 mV.

For the molecule `O=C(NCc1ccnc(OCC(F)(F)F)c1)N[C@@H]1CCSc2ccccc21` [Compound 174], the EC50 is 1240 nM and the “Kv7.2/7.3 ΔV1/2” value is on record as 47.65 mV.

On to `O=C(NCc1ccnc(OCC(F)(F)F)c1)N[C@H]1CCSc2ccccc21` [Compound 175], for which the EC50 is 1220 nM and the “Kv7.2/7.3 ΔV1/2” value amounted to 20.52 mV.

As to `O=C(NCc1ccnc(OCC(F)(F)F)c1)N[C@@H]1CCc2c(F)cc(F)cc21` [Compound 176], the EC50 is 1090 nM and the “Kv7.2/7.3 ΔV1/2” value stood at 40.89 mV.

For the molecule `COc1ccc2c(c1)CCC[C@H]2NC(=O)NCc1ccnc(OCC(F)(F)F)c1` [Compound 177], the EC50 turned out to be 2280 nM and the “Kv7.2/7.3 ΔV1/2” value turned out to be 54.8 mV.

On to `COc1ccc2c(c1)CCC[C@@H]2NC(=O)NCc1ccnc(OCC(F)(F)F)c1` [Compound 178], for which the EC50 amounted to 8110 nM and the “Kv7.2/7.3 ΔV1/2” value was 27.73 mV.

With `O=C(NCc1ccnc(OCC(F)(F)F)c1)N[C@@H]1CCOc2c(F)cccc21` [Compound 179], the EC50 was found to be 2000 nM and the “Kv7.2/7.3 ΔV1/2” value amounted to 33.61 mV.

Consider `O=C(NCc1ccnc(OCC(F)(F)F)n1)N[C@@H]1CCCc2ccccc21` [Compound 180], for which the EC50 came out at 5830 nM and the “Kv7.2/7.3 ΔV1/2” value stood at 24.71 mV.

Take `O=C(NCc1ccnc(OCC(F)(F)F)c1)N[C@H]1CCOc2c(F)cccc21` [Compound 181]: the EC50 was determined as 700 nM and the “Kv7.2/7.3 ΔV1/2” value was found to be 24.16 mV.

For `COc1ccc2c(c1)[C@H](NC(=O)NCc1ccnc(OCC(F)(F)F)c1)CCO2` [Compound 182], the EC50 is 1550 nM and the “Kv7.2/7.3 ΔV1/2” value is 37.46 mV.

Take `COc1cccc2c1CCC[C@H]2NC(=O)NCc1ccnc(OCC(F)(F)F)c1` [Compound 183]: the EC50 was determined as 2490 nM and the “Kv7.2/7.3 ΔV1/2” value is on record as 43.65 mV.

For the molecule `Cc1cccc2c1OCC[C@H]2NC(=O)NCc1ccnc(OCC(F)(F)F)c1` [Compound 184], the EC50 stood at 1230 nM and the “Kv7.2/7.3 ΔV1/2” value is 42.17 mV.

Consider `Cc1cccc2c1OCC[C@@H]2NC(=O)NCc1ccnc(OCC(F)(F)F)c1` [Compound 185], for which the EC50 is 5390 nM and the “Kv7.2/7.3 ΔV1/2” value came to 22.68 mV.

As to `O=C(NCc1ccnc(OCC(F)(F)F)c1)N[C@@H]1COc2ccccc2C1` [Compound 186], the EC50 was 290 nM and the “Kv7.2/7.3 ΔV1/2” value came to 34.07 mV.

As for `O=C(NCc1ccnc(OCC(F)(F)F)c1)N[C@H]1COc2ccccc2C1` [Compound 187], the EC50 came out at 2330 nM and the “Kv7.2/7.3 ΔV1/2” value came out at 21.99 mV.

For the molecule `O=C(NCc1ccnc(OCC(F)(F)F)c1)N[C@@H]1CCC[C@H]1c1ccc(F)cc1` [Compound 188], the EC50 is 470 nM and the “Kv7.2/7.3 ΔV1/2” value came to 28.3 mV.

Take `O=C(NCc1ccnc(OCC(F)(F)F)c1)N[C@H]1CCOc2cccc(F)c21` [Compound 189]: the EC50 worked out at 2720 nM and the “Kv7.2/7.3 ΔV1/2” value was found to be 32.95 mV.

For `COc1ccc2c(c1)C[C@H](NC(=O)NCc1ccnc(OCC(F)(F)F)c1)CC2` [Compound 190], the EC50 was found to be 820 nM and the “Kv7.2/7.3 ΔV1/2” value is 20.58 mV.

For the molecule `O=C(NCc1ccnc(OCC(F)(F)F)c1)N[C@@H]1CCCc2cc(F)ccc21` [Compound 191], the EC50 came to 1170 nM and the “Kv7.2/7.3 ΔV1/2” value is listed as 46.54 mV.

Regarding `CC1(C)C[C@@H](NC(=O)NCc2ccnc(OCC(F)(F)F)c2)c2ccccc21` [Compound 192], the EC50 was 1690 nM and the “Kv7.2/7.3 ΔV1/2” value was found to be 47.09 mV.

Regarding `CC1(C)C[C@H](NC(=O)NCc2ccnc(OCC(F)(F)F)c2)c2ccccc21` [Compound 193], the EC50 amounted to 520 nM and the “Kv7.2/7.3 ΔV1/2” value came to 23.15 mV.

With `COc1cccc(N2CC[C@@H](NC(=O)NCc3ccnc(OCC(F)(F)F)c3)C2)c1` [Compound 194], the EC50 came to 2580 nM and the “Kv7.2/7.3 ΔV1/2” value came out at 29.55 mV.

For the molecule `O=C(NCc1ccnc(OCC(F)(F)F)c1)N[C@@H]1CCO[C@@H](c2ccccc2)C1` [Compound 195], the EC50 stood at 6670 nM and the “Kv7.2/7.3 ΔV1/2” value is 39.68 mV.

For the molecule `O=C(NCc1ccnc(OCC(F)(F)F)c1)N[C@@H]1CC[C@H](c2ccccc2)C1` [Compound 196], the EC50 is 1540 nM and the “Kv7.2/7.3 ΔV1/2” value is 56.75 mV.

For the molecule `O=C(NCc1ccnc(OCC(F)(F)F)c1)N[C@H]1CCO[C@@H]1c1ccccc1` [Compound 197], the EC50 came out at 7620 nM and the “Kv7.2/7.3 ΔV1/2” value worked out at 39.86 mV.

With `O=C(NCc1ccnc(OCC(F)(F)F)c1)N[C@H]1CC[C@@H](c2ccccc2F)C1` [Compound 198], the EC50 came out at 1370 nM and the “Kv7.2/7.3 ΔV1/2” value is given as 76.04 mV.

Turning to `O=C(NCc1ccnc(OCC(F)(F)F)c1)N[C@@H]1COc2c(F)cccc21` [Compound 199], the EC50 is 1820 nM and the “Kv7.2/7.3 ΔV1/2” value was 36.36 mV.

Consider `CC1(C)C[C@H](NC(=O)NCc2ccnc(OCC(F)(F)F)c2)c2ccccc2O1` [Compound 200], for which the EC50 is 2510 nM and the “Kv7.2/7.3 ΔV1/2” value was 25.04 mV.

Turning to `O=C(NCc1ccnc(OCC(F)(F)F)c1)NC[C@H]1COc2ccccc2C1` [Compound 201], the EC50 came out at 2220 nM and the “Kv7.2/7.3 ΔV1/2” value is reported as 27.95 mV.

`COc1ccccc1N1CC[C@@H](NC(=O)NCc2ccnc(OCC(F)(F)F)c2)C1` [Compound 202]: the EC50 is 4340 nM and the “Kv7.2/7.3 ΔV1/2” value was 26.02 mV.

For the molecule `CO[C@@H]1CCOc2c(NC(=O)NCc3ccnc(OCC(F)(F)F)c3)cccc21` [Compound 203], the EC50 came to 2870 nM and the “Kv7.2/7.3 ΔV1/2” value came out at 20.92 mV.

In the case of `O=C(NCc1ccnc(OCC(F)(F)F)c1)N[C@@H]1CCOc2cc(F)ccc21` [Compound 204], the EC50 came out at 980 nM and the “Kv7.2/7.3 ΔV1/2” value is recorded as 38.78 mV.

For the molecule `C[C@@H](Oc1cc(CNC(=O)N[C@@H]2CCOc3ccccc32)ncn1)C(F)(F)F` [Compound 205], the EC50 worked out at 7090 nM and the “Kv7.2/7.3 ΔV1/2” value came out at 40.29 mV.

For the molecule `C[C@@H](Oc1cc(CNC(=O)N[C@@H]2CCOc3ccc(F)cc32)ncn1)C(F)(F)F` [Compound 206], the EC50 was 6780 nM and the “Kv7.2/7.3 ΔV1/2” value worked out at 33.98 mV.

For `C[C@@H](Oc1cc(CNC(=O)N[C@@H]2COc3ccccc32)ncn1)C(F)(F)F` [Compound 207], the EC50 worked out at 10200 nM and the “Kv7.2/7.3 ΔV1/2” value is reported as 23.90 mV.

For `C[C@@H](Oc1cc(CNC(=O)N[C@@H]2COc3ccc(F)cc32)ncn1)C(F)(F)F` [Compound 208], the EC50 amounted to 8150 nM and the “Kv7.2/7.3 ΔV1/2” value came out at 23.96 mV.
